Laboratory results reported in patent US12065416B2, “cGAS antagonist compounds” (IMMUNESENSOR THERAPEUTICS, INC., priority 2016, dated 2024).

Target: T1, recombinant cGAS (aa147-522) (Homo sapiens, UniProt Q8N884)
T1 construct: recombinant cGAS (aa147-522); His6-SUMO (N, cleaved yes); made in house; host or cells: E. coli BL21/pLys
Assay: In vitro assay for inhibition of cGAS activity (ATP consumption, Kinase Glo)
Assay type: biochemical
Settings: 37° C. 20 minutes, read-out: Activity (Inhibition of cGAS enzyme activity in vitro, IC50)
Experimental: cDNA encoding full-length or amino acids 147-520 of human cGAS is inserted into a modified pET28a vector containing an in-frame His6-SUMO tag. The E. coli strain BL21/pLys harboring the plasmid is induced with 0.5 mM IPTG at 18° C. overnight. His6-SUMO tag was removed by a SUMO proease following purification of the HiS-SUMO-cGAS as described previously (Sun et al, 2013, Science 339, 786).
A40 μL mixture containing 1.5 ng/μL of recombinant cGAS (aa147-522) and serial dilutions of a test compound or DMSO was added to a 96-well plate and incubated at 37° C. for 20 minutes. At the end of reaction, 20 μL of Kinase Glo (Promega) was added and chemiluminescence measured with a luminometer. Inhibitory effect of a compound is evaluated by plotting percentage of ATP consumption against logarithm of compound concentrations. IC50 value was calculated using Graphpad (Sigma).

T1 sequence (Q8N884 147-522): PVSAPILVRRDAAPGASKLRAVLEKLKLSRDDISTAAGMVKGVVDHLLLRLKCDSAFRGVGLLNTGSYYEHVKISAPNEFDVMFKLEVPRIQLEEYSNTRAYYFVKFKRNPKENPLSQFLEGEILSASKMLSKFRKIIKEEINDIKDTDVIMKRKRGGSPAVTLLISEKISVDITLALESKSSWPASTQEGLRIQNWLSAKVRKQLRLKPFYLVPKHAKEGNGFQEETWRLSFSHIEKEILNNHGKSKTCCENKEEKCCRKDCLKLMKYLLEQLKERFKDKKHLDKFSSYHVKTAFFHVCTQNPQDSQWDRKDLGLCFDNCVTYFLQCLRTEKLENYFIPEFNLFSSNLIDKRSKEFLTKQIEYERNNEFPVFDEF

| Compound | IC50 |
| --- | --- |
| CC(Oc1cc(/C=C2\SC(=O)N(C)C2=O)c(Br)c(F)c1O)c1cncnc1 (stereo not drawn) [Ex192] | 0.5 to 10 µM |
| COc1cc(/C=C2\SC(=O)N(C)C2=O)c(Br)cc1Oc1cnc(NCc2cccnc2)s1 [Ex207] | 0.5 to 10 µM |
| CC(Oc1cc(/C=C2\Sc3ncccc3C2=O)c(Br)cc1O)c1cccnc1 (stereo not drawn) [Ex119] | 0.5 to 10 µM |
| CN1C(=O)S/C(=C\c2cc(OCc3cnc(N4CCCCC4)nc3)c(O)cc2Br)C1=O [Ex164] | ≥ 10 µM |
| CN1C(=O)S/C(=C\c2cc(OCc3cnc(Nc4ccccn4)nc3)c(O)cc2Br)C1=O [Ex83] | 0.5 to 10 µM |
| Cc1nc(N)ncc1COc1cc(/C=C2\Sc3ncccc3C2=O)c(Br)c(F)c1O [ExA8] | ≤ 0.5 µM |
| CN1C(=O)S/C(=C\c2cc(OCc3cnc(S(C)(=O)=O)nc3Cl)c(O)cc2Br)C1=O [Ex221] | 0.5 to 10 µM |
| CN1C(=O)S/C(=C\c2cc3c(-c4ccc(N)cc4)c[nH]c3cc2Br)C1=O [ExB14] | 0.5 to 10 µM |
| CN1C(=O)S/C(=C\c2cc(OCc3cnc(O)nc3)c(O)cc2Br)C1=O [Ex217] | 0.5 to 10 µM |
| CN1C(=O)S/C(=C\c2cc3c(Cc4cnc(N)nc4)c[nH]c3cc2Br)C1=O [Ex208] | 0.5 to 10 µM |
| CN1C(=O)S/C(=C\c2cc(Oc3ccc([N+](=O)[O-])nc3)c(O)cc2Br)C1=O [Ex102] | 0.5 to 10 µM |
| O=C1NC(=O)/C(=C/c2cncnc2)S1 [Ex8] | ≥ 10 µM |
| CC(Cc1cnc(N)nc1)Oc1cc(/C=C2\SC(=O)N(C)C2=O)c(Br)c(F)c1O (stereo not drawn) [ExB9] | 0.5 to 10 µM |
| CC(C)COc1cc(/C=C2\SC(=O)N(C)C2=O)c(Br)cc1O [Ex85] | 0.5 to 10 µM |
| Cc1nc2c(Oc3cc(/C=C4\SC(=O)N(C)C4=O)c(Br)cc3O)cccc2o1 [ExB13] | 0.5 to 10 µM |
| CN1C(=O)S/C(=C\c2cc3cc[nH]c3cc2Br)C1=O [Ex66] | 0.5 to 10 µM |
| CCC(Oc1cc(/C=C2\SC(=O)N(C)C2=O)c(Br)c(F)c1O)c1cnc(Cl)nc1 (stereo not drawn) [ExB31] | 0.5 to 10 µM |
| CN1C(=O)S/C(=C\c2cc(Oc3ccc(-c4cccnc4)cc3)c(O)cc2Br)C1=O [ExB28] | ≥ 10 µM |
| CN1C(=O)S/C(=C\c2cc(Oc3cccc(O)c3N)c(O)cc2Br)C1=O [ExB12] | ≥ 10 µM |
| Cc1ncc(COc2cc(/C=C3\SC(=O)N(C)C3=O)c(Br)cc2O)cn1 [Ex142] | ≤ 0.5 µM |
| CN1C(=O)S/C(=C\c2cc(OCc3ccc(NC(=O)c4ccncc4)nc3)c(O)cc2Br)C1=O [Ex54] | ≤ 0.5 µM |

| Compound | IC50 |
| --- | --- |
| CN1CCC(COc2cc(/C=C3\SC(=O)N(C)C3=O)c(Br)cc2O)CC1 [Ex126] | 0.5 to 10 µM |
| COc1cc(/C=C2\SC(=O)N(C)C2=O)c(Br)cc1Oc1cnc(NCc2ccncc2)s1 [Ex206] | 0.5 to 10 µM |
| CN1C(=O)S/C(=C\c2cc(OCC3CCN(C(=O)c4cccnc4)CC3)c(O)cc2Br)C1=O [Ex129] | 0.5 to 10 µM |
| O=C1/C(=C/c2cc3nn[nH]c3cc2Br)Sc2ncccc21 [Ex78] | ≤ 0.5 µM |
| N=C1NC(=O)/C(=C/c2ccncc2)S1 [Ex9] | ≥ 10 µM |
| COc1cc(/C=C2\Sc3ncccc3C2=O)c(I)cc1O [Ex77] | ≤ 0.5 µM |
| CN1C(=O)S/C(=C\c2cc(OCc3ccc(=O)[nH]c3)c(O)cc2Br)C1=O [Ex125] | 0.5 to 10 µM |
| O=C1NC(=O)/C(=C/c2ccncc2)N1 [Ex14] | 0.5 to 10 µM |
| CN1C(=O)S/C(=C\c2cc(OCc3cncc4ccccc34)c(O)cc2Br)C1=O [Ex176] | 0.5 to 10 µM |
| CSc1cc(/C=C2\SC(=O)N(C)C2=O)c(Br)cc1O [Ex69] | 0.5 to 10 µM |
| CN1C(=O)S/C(=C\c2cc(OCc3cnc(N4CCCC4)nc3)c(O)cc2Br)C1=O [Ex163] | ≥ 10 µM |
| Cc1nc(N)ncc1C(C)Oc1cc(/C=C2\SC(=O)N(C)C2=O)c(Br)cc1O (stereo not drawn) [Ex183] | 0.5 to 10 µM |
| CN1C(=O)S/C(=C\c2cc(OCc3cnc(NCc4ccncc4)nc3)c(O)c(F)c2Br)C1=O [Ex190] | ≤ 0.5 µM |
| COc1cc(/C=C2\SC(=O)N(C)C2=O)c(Br)cc1OCc1ccncc1 [Ex203] | 0.5 to 10 µM |
| CN1C(=O)S/C(=C\c2cc(OCc3cnc(NCc4ccccc4)nc3)c(O)cc2Br)C1=O [Ex154] | 0.5 to 10 µM |
| CC(Oc1cc(/C=C2\SC(=O)N(C)C2=O)c(Br)cc1O)c1cncnc1 (stereo not drawn) [Ex103] | 0.5 to 10 µM |
| COc1cc(/C=C2\SC(=O)N(C)C2=O)c(Br)cc1Oc1ccncc1 [Ex202] | 0.5 to 10 µM |
| O=C1/C(=C/c2cc(C(F)(F)F)c(O)cc2Br)Sc2ncccc21 [ExB17] | ≤ 0.5 µM |
| CN1C(=O)S/C(=C\c2cc(OCc3cnc(N)nc3C3CC3)c(O)c(F)c2Br)C1=O [Ex109] | 0.5 to 10 µM |
| CN1C(=O)S/C(=C\c2cc(OCc3ccc4ncccc4c3)c(O)cc2Br)C1=O [Ex174] | ≥ 10 µM |
| COc1nc([S+](C)[O-])ncc1COc1cc(/C=C2\SC(=O)N(C)C2=O)c(Br)cc1O (stereo not drawn) [Ex212] | 0.5 to 10 µM |

| Compound | IC50 |
| --- | --- |
| COc1cc(/C=c2\sc3n(c2=O)CCCN=3)c(Cl)cc1O [Ex43] | 0.5 to 10 µM |
| COc1cc(/C=C2\SC(=O)N(C)C2=O)c(Br)cc1NS(C)(=O)=O [Ex22] | ≥ 10 µM |
| CN1C(=O)S/C(=C\c2cc(Oc3ccc(-c4ccccn4)cc3)c(O)cc2Br)C1=O [ExB26] | ≥ 10 µM |
| COc1cc(/C=c2\sc3n(c2=O)CCN=3)c(Br)cc1O [Ex40] | 0.5 to 10 µM |
| CC(=O)Nc1ncc(S(=O)(=O)Nc2cc(Br)c(/C=C3\SC(=O)N(C)C3=O)cc2OCc2ccccc2)s1 [Ex62] | 0.5 to 10 µM |
| CN1C(=O)S/C(=C\c2cc(OCc3cncc(NCc4ccccn4)c3)c(O)cc2Br)C1=O [Ex227] | ≥ 10 µM |
| COc1cc(/C=c2\sc3n(c2=O)CCCN=3)c(Br)cc1O [Ex42] | 0.5 to 10 µM |
| CC(=O)c1cc(N)ccc1Oc1cc(/C=C2\SC(=O)N(C)C2=O)c(Br)c(F)c1O [ExB7] | ≥ 10 µM |
| CN1C(=O)S/C(=C\c2cc(OCc3cnc(NC(=O)c4ccncc4)nc3)c(O)cc2Br)C1=O [Ex161] | ≤ 0.5 µM |
| CN1C(=O)S/C(=C\c2cc(OC(F)(F)F)c(Oc3cnc(N)s3)cc2Br)C1=O [ExB33] | ≥ 10 µM |
| COCCNc1ncc(C(C)Oc2cc(/C=C3\SC(=O)N(C)C3=O)c(Br)cc2O)cn1 (stereo not drawn) [Ex182] | 0.5 to 10 µM |
| CN1C(=O)S/C(=C\c2cc(OCc3cnc(-c4cccnc4)nc3)c(O)cc2Br)C1=O [Ex96] | 0.5 to 10 µM |
| C/C(=C1/SC(=O)NC1=O)c1ccncc1 [Ex12] | ≤ 0.5 µM |
| CN1C(=O)S/C(=C\c2cc(CCc3ccc([S+](C)[O-])cc3)c(O)cc2Br)C1=O (stereo not drawn) [ExB38] | ≥ 10 µM |
| O=C1/C(=C/c2cc(OCc3cnc(NCc4ccccn4)nc3)c(O)cc2Br)Sc2ncccc21 [Ex198] | ≤ 0.5 µM |
| COc1cc(/C=C2\Sc3ncncc3C2=O)c(Br)cc1O [Ex51] | 0.5 to 10 µM |
| COc1cc(/C=C2\SC(=O)N(C)C2=O)c(Br)cc1NS(=O)(=O)C(F)(F)F [Ex60] | 0.5 to 10 µM |
| CN1C(=O)S/C(=C\c2cc(OCc3cncc(NCc4ccncc4)c3)c(O)cc2Br)C1=O [Ex228] | ≥ 10 µM |
| COc1cc(/C=C2\Sc3cnccc3C2=O)c(Br)cc1O [Ex49] | ≤ 0.5 µM |
| CN1C(=O)S/C(=C\c2cc(OCc3cnc(-c4ccncc4)nc3)c(O)cc2Br)C1=O [Ex146] | ≤ 0.5 µM |
| CN1C(=O)S/C(=C\c2cc3nn[nH]c3cc2Br)C1=O [Ex36] | ≥ 10 µM |

| Compound | IC50 |
| --- | --- |
| CC(C)CNc1ncc(COc2cc(/C=C3\SC(=O)N(C)C3=O)c(Br)cc2O)cn1 [Ex151] | 0.5 to 10 µM |
| CN1CCN(c2ncc(COc3cc(/C=C4\SC(=O)N(C)C4=O)c(Br)cc3O)cn2)CC1 [Ex167] | 0.5 to 10 µM |
| COc1cc(/C=C2\SC(=O)N(C)C2=O)c(Br)cc1Oc1ccnc2ccccc12 [Ex204] | 0.5 to 10 µM |
| CC(C)Nc1ncc(COc2cc(/C=C3\SC(=O)N(C)C3=O)c(Br)cc2O)cn1 [Ex150] | 0.5 to 10 µM |
| CN1C(=O)S/C(=C\c2cc(OCc3cnc(NCc4ccccn4)nc3)c(O)c(F)c2Br)C1=O [Ex188] | 0.5 to 10 µM |
| Cc1nc([S+](C)[O-])nc(C)c1COc1cc(/C=C2\SC(=O)N(C)C2=O)c(Br)cc1O (stereo not drawn) [Ex215] | 0.5 to 10 µM |
| CN1C(=O)S/C(=C\c2cc(OCC(F)(F)c3cnc(N)nc3)c(O)c(F)c2Br)C1=O [ExA20] | 0.5 to 10 µM |
| CN1C(=O)S/C(=C\c2cc(OCc3cnc(Nc4ccccc4)nc3)c(O)cc2Br)C1=O [Ex158] | 0.5 to 10 µM |
| CN1C(=O)S/C(=C\c2cc(OCc3cnc(-n4cccn4)nc3)c(O)cc2Br)C1=O [Ex169] | 0.5 to 10 µM |
| CN1C(=O)S/C(=C\c2cc(OCc3cnc(N4CCOCC4)nc3)c(O)cc2Br)C1=O [Ex166] | ≥ 10 µM |
| COc1cccc(Oc2cc(/C=C3\SC(=O)N(C)C3=O)c(Br)cc2O)c1N [ExB11] | ≥ 10 µM |
| COc1ncc(COc2cc(/C=C3\SC(=O)N(C)C3=O)c(Br)cc2O)cn1 [Ex143] | 0.5 to 10 µM |
| CN1C(=O)S/C(=C\c2cc(CC(F)(F)F)c(O)cc2Br)C1=O [ExB20] | 0.5 to 10 µM |
| CN1C(=O)S/C(=C\c2cc(OCc3cnc(C4CC4)nc3)c(O)cc2Br)C1=O [Ex94] | 0.5 to 10 µM |
| COc1cc(/C=C2\Sc3ncccc3C2=O)c(Br)cc1Oc1cnc(N)s1 [Ex74] | 0.5 to 10 µM |
| COc1cc2c(cc1O)CC/C2=C1/SC(=O)N(C)C1=O [Ex13] | ≥ 10 µM |
| CN1C(=O)S/C(=C\c2cc(OCc3ccnc(N)c3)c(O)cc2Br)C1=O [Ex133] | 0.5 to 10 µM |
| CN1C(=O)S/C(=C\c2cc(OCc3ccn(Cc4ccccc4)c(=O)c3)c(O)cc2Br)C1=O [Ex91] | 0.5 to 10 µM |
| CN1C(=O)S/C(=C\c2cc(OCc3ccnc(N)n3)c(O)cc2Br)C1=O [Ex138] | 0.5 to 10 µM |
| COc1nc(N)ncc1COc1cc(/C=C2\SC(=O)N(C)C2=O)c(Br)cc1O [Ex222] | 0.5 to 10 µM |
| CN1C(=O)S/C(=C\c2cc(OCc3cnc(N)nc3C(F)(F)F)c(O)cc2Br)C1=O [Ex172] | ≤ 0.5 µM |
